# Several values for one entry are separate records, joined by “and”; a condition that tells them apart may be missing. Identical values can stand only once.
# How the values were obtained:
# ES-2 cells = assay: 3D matrigel assay, ES-2; assay type: cell-based, human; settings: ES-2, 100 nM
# Experimental: Fig. 2 NHWD-870 inhibited BRD4 phosphorylation and c-MYC expression, and suppressed cell growth. a Representative western blot analysis of p-BRD4 (s484/488), BRD4, c-MYC, and GAPDH after treatment of MDA-MB231, SUM159, A2780 ES-2, and H526 cells with JQ-1 or NHWD-870 at the indicated concentrations for 24 h. GAPDH served as the loading control. Selected from three independent experiments. b MTT assays of H526, A2780, ES-2, and MDA-MB231 cells treated with JQ-1 or NHWD-870 at the indicated concentrations for 5 days. Data are presented as mean ± SEM from three independent experiments. c, d Clonogenic assays of H526, A2780, ES-2 and MDA-MB231 cells treated with 250 nM JQ-1 or NHWD-870 for 5 days. Shown are representative images (c) and quantification of colonies (d). […] Shown are representative images (e) and quantification of relative colony sizes (f). Scale bar, 50 μm. Data are presented as mean ± SEM from five independent experiments. p values were calculated using two-tailed, unpaired t tests in this figure. **p < 0.01; ***p < 0.001. Source data are provided as a Source Data file.
# Single clone spheroids were generated by culturing A2780, ES-2, H526 and MDA-MB231 cells for 16 h as a hanging drop over a humidified plate in a CO2 incubator in their corresponding complete media. […] The relative spheroid sizes were measured with ImageJ version 1.52s using the 15 representative spheroids.
# A2780 tumors = assay: Orthotopic OC model with CSF1 overexpressing A2780 cells, NHWD-870 treatment; assay type: in vivo, mouse; set-up: Tumor weight (Fig.6k) / Ascitic fluid (Fig.6l): unit not given here
# Experimental: Fig. 6 CSF1/CSF1R signaling is critical for the tumor inhibitory effects of NHWD-870 and CSF1 induced ovarian cancer growth depends on macrophages. a Number of TAMs after treatment with the indicated concentration of CSF1 for 48 h. Data are presented as mean ± SEM from three independent experiments. b–d Schematics of the experiments (b). A2780 cells (pre-treated with DMSO or 100 nM NHWD-870 for 48 h) were seeded into the top chamber (transwell size: 0.4 μm), and TAMs (Mac, 40,000 cells per 24-well) in medium with PBS or 10 ng/ml CSF1 (c), or 50 ng/ml IgG or anti-CSF1R antibodies (d), were seeded into the bottom chamber. Shown are quantification of TAMs (c, d). Data are presented as mean ± SEM from three independent experiments. e Representative western blot analysis of A2780 cells stably transfected with CSF1 or empty vector (EV). Selected from three independent experiments. f Schematics of the animal experiments using an orthotopic mouse OC model, established by intraperitoneally injecting 1 × 10^6 (g–j) or 2 × 10^6 (k–m) human A2780 cells overexpressing CSF1 or control into female recipient nude mice. Mice were then treated with/without liposomal clodronate (LC) for 45 days (g–j) or treated with/without NHWD-870 (PO, QD, 3 mg/kg) for 37 days (k–m). g Increased mouse body weight was measured at the indicated time points (day 0-45 after LC treatment). h–j Net tumor weight (h), ascitic fluid volumes (i) tumor implantations in peritoneum, omentum and pevic cavity (j) were measured at day 45 from LC treatment. k–m Net tumor weight (k), ascitic fluid volumes (l) tumor implantations in peritoneum, omentum and pevic cavity (m) were measured at day 37 after NHWD-870 treatment. For g–m, data are presented as mean ± SEM from five different mice. p values were calculated using two-tailed, unpaired t tests in this figure. n.s, not significant; *p < 0.05; **p < 0.01; and ***p < 0.001. Source data are provided as a Source Data file.
# 4–6 weeks old female BALB/c nude mice were used for most experiments, with the exception of 6–8 weeks old female C57BL/6 mice were used for B16F10 experiments, and 6–8 weeks old male BALB/c nude mice and SD rats were used for pharmacokinetic experiments. All animals were purchased from Shanghai SIPPR-Bk Lab Animal Co., Ltd. All animals were housed under a regimen of 12 h light/12 h dark cycles and specific pathogen-free conditions. 5×10^6 NCI-H526, ES-2, MDA-MB231, A2780, A375, B16F10, and TMD-8 cells (0.1 ml) were injected subcutaneously into female nude mice. The melanoma patient-derived xenograft model was derived from a human melanoma sample (BRAF, NARS and NF1 wild type, and p53 mutant) removed from a patient in Xiangya Hospital. Surgically removed tumor fragments were implanted subcutaneously into female NSG mice. When the tumors grew to ~1000 mm^3, they were harvested and cryopreserved or immediately re-implanted for expansion or experiments. Mouse body weight and tumor sizes were measured every 3 days. Once the tumors grew to 150–200 mm^3, mice were treated with the compounds as described in the Figures. 1 × 10^6 A2780 cells (1 ml) were injected into the abdominal cavity of nude mice. Ascitic volume and tumor weight were measured by an electronic balance. All the procedures were evaluated and approved by the Institutional Animal Care and Use Committee of Central South University and Yale University.
# [1] = CSF-1 overexpressing A2780 cells
structure (smiles),measurement,setting,value
Cc1nnn(C)c1-c1cnc2c3c4cnn(C)c4ccc3n([C@H](c3ccccc3)C3CCOCC3)c2c1 [NHWD-870],"Clone Size (relative colony size, 3D matrigel assay)",ES-2 cells,35.3 and 32.7 and 30.1 and 25.5 and 23.9
same,Ascitic fluid (Fig.6l),A2780 tumors; [1],2.5 and 3.8 and 4.1 and 3.5 and 2.1
same,"Tumor nodules, Omentum (Fig.6m)",A2780 tumors; [1],8 and 13 and 10 and 16 and 12
same,"Tumor nodules, Pelvic (Fig.6m)",A2780 tumors; [1],45 and 54 and 36 and 64 and 51
same,Tumor weight (Fig.6k),A2780 tumors; [1],375 and 345 and 367 and 276 and 305
same,tumor inhibitory effects on CSF1 overexpressing A2780 tumors,"A2780 tumors; PO, QD, 3 mg/kg, 37 days",strongly mitigated the tumor inhibitory effects

# Reference: publication PMC7156724, “Potent BRD4 inhibitor suppresses cancer cell-macrophage interaction” (Nature Communications, 2020)
